Experimental data reported in patent publication US8153601B2, “Azithromycin-containing aqueous pharmaceutical composition and a method for the preparation of the same” (Wakamoto Pharmaceutical Co., Ltd., priority 2004, dated 2012).

Test: Stability of azithromycin during the preparation steps (survival rate of AZT after preparation, HPLC)
Type: physicochemical
Conditions: pH of the azithromycin-containing aqueous solution less than 4.0
Description: Stability of the azithromycin-containing aqueous pharmaceutical compositions prepared in the above Examples and Comparative Examples were evaluated in terms of azithromycin concentration in the composition.
The compositions (Examples 1 to 8 and Comparative Examples 1 and 2) were packed in glass vial, sealed with a lid, and stored at 60° C. for one and two weeks. Then, azithromycin concentration in the composition just after packed in the glass vial and after the storage at 60° C. was determined by HPLC. Stability was evaluated as follows.
First, the azithromycin content added was compared with the azithromycin content in the composition just after packed in the glass vial to evaluate stability of azithromycin during the preparation steps. This is expressed by a survival rate of AZT after preparation wherein AZT means azithromycin.
The same procedures in Test Example 1 were repeated to evaluate stability of the compositions of Examples 9 to 12 and Comparative Example 3.
The similar procedures to Test Example 1 were repeated to evaluate stability of the compositions of Examples 18 to 20.

With `CC[C@H]1OC(=O)[C@H](C)[C@@H](O[C@H]2C[C@@](C)(OC)[C@@H](O)[C@H](C)O2)[C@H](C)[C@@H](O[C@@H]2O[C@H](C)C[C@H](N(C)C)[C@H]2O)[C@](C)(O)C[C@@H](C)CN(C)[C@H](C)[C@@H](O)[C@]1(C)O` [azithromycin] the “decomposition of azithromycin in aqueous solution” value was “decomposed”.
